The structures appear in SMILES notation.

The source of these data is patent US20250011299A1, “PYRIDAZINYL AMINO DERIVATIVES AS ALK5 INHIBITORS” (CHIESI FARMACEUTICI S.P.A., priority 2021, published 2025).

This assay deals with T1, human ALK5 (Homo sapiens, UniProt P36897).
T1 construct: human ALK5 (recombinant TGF β1 N-term GST-tagged, 80-end); GST (N); purchased
T1 sequence (P36897 80-503 limits assumed): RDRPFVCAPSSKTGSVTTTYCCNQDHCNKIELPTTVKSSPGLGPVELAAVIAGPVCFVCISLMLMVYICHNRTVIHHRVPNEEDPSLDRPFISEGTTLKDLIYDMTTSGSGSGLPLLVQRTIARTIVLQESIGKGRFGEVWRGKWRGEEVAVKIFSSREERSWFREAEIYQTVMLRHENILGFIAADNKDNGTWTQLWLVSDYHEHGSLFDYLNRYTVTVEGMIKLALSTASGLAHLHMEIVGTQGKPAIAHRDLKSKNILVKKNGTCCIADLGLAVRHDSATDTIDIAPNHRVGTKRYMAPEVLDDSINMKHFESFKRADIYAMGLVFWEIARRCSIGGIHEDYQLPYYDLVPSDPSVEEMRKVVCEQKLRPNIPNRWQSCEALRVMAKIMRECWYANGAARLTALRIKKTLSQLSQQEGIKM
Kind of assay: ADP-GLO Kinases assay of ALK5 enzymatic activity. Format: biochemical. The conditions noted are these: purified recombinant human ALK5, TGFβ1 peptide substrate, pIC50 converted to pKi by Cheng-Prusoff, high ATP protocol (15 μM) for very potent compounds, 25° C. Put shortly: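 Purified ALK5 preincubated 15 min with compound, then reacted with substrate and ATP; ADP formed read by ADP-Glo luminescence after 120 min or 60 min reaction, all steps at 25° C. 11-point concentration-response; pIC50 converted to pKi via Cheng-Prusoff.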
Turning to `COCC1(CN(C)c2nnc(-c3cc(Cl)ccc3F)cc2Nc2ccnc(NC(=O)CCN3CCN(C)CC3)c2)CCOC1=O` (single isomer, unassigned) [Example 201, N-(4-{[6-(5-chloro-2-fluorophenyl)-3-({[3-(methoxymethyl)-2-oxooxolan-3-yl]methyl}(methyl)amino)pyridazin-4-yl]amino}pyridin-2-yl)-3-(4-methylpiperazin-1-yl)propanamide], the Ki is ≤ 0.1 nM. The value for `CN1CCCN(CC(=O)Nc2cc(Nc3cc(-c4cc(Cl)ccc4F)nnc3N(C)CC3(C)CCOC3=O)ncn2)CC1` (single isomer, unassigned) [Example 208, N-(6-{[6-(5-chloro-2-fluorophenyl)-3-{methyl[(3-methyl-2-oxooxolan-3-yl)methyl]amino}pyridazin-4-yl]amino}pyrimidin-4-yl)-2-(4-methyl-1,4-diazepan-1-yl)acetamide] was ≤ 0.1 nM; that for `CC(C)OC(=O)C1CCN1c1nnc(-c2cc(Cl)ccc2F)cc1Nc1ccnc(NC(=O)CCN2CCN(C)CC2)c1` (racemic) [Example 150, propan-2-yl 1-[6-(5-chloro-2-fluorophenyl)-4-({2-[3-(4-methylpiperazin-1-yl)propanamido]pyridin-4-yl}amino)pyridazin-3-yl]azetidine-2-carboxylate] was 0.398 to 3.16 nM. Take `CC(C)OC(=O)C1CN(c2nnc(-c3cc(Cl)ccc3F)cc2Nc2ccnc(NC(=O)CCN3CCN(C)CC3)c2)C1` [Example 100, propan-2-yl 1-[6-(5-chloro-2-fluorophenyl)-4-({2-[3-(4-methylpiperazin-1-yl)propanamido]pyridin-4-yl}amino)pyridazin-3-yl]azetidine-3-carboxylate]: the Ki is 0.126 to 0.316 nM. Regarding `C[C@@H]1CN(CCC(=O)Nc2cc(Nc3cc(-c4cc(Cl)ccc4F)nnc3SCCO)ccn2)C[C@H](C)N1` [Example 178, N-(4-{[6-(5-chloro-2-fluorophenyl)-3-[(2-hydroxyethyl)sulfanyl]pyridazin-4-yl]amino}pyridin-2-yl)-3-(3,5-dimethylpiperazin-1-yl)propanamide], the Ki is ≤ 0.1 nM. Turning to `CN1CCN(CCC(=O)Nc2cc(Nc3cc(-c4cc(Cl)ccc4F)nnc3SCCNC(=O)C3COC(=O)C3)ccn2)CC1` (racemic) [Example 205, N-(2-{[6-(5-chloro-2-fluorophenyl)-4-({2-[3-(4-methylpiperazin-1-yl)propanamido]pyridin-4-yl}amino)pyridazin-3-yl]sulfanyl}ethyl)-5-oxooxolane-3-carboxamide], the inhibitory constant (Ki) was ≤ 0.1 nM.

On to `C[C@@H]1CN([C@H]2C[C@H](C(=O)Nc3cc(Nc4cc(-c5cc(Cl)ccc5F)nnc4N(C)CC4(C)CCOC4=O)ncn3)C2)C[C@H](C)N1` (mixture of isomers) [Example 185, N-(6-{[6-(5-chloro-2-fluorophenyl)-3-{methyl[(3-methyl-2-oxooxolan-3-yl)methyl]amino}pyridazin-4-yl]amino}pyrimidin-4-yl)-3-(3,5-dimethylpiperazin-1-yl)cyclobutane-1-carboxamide], for which the Ki was ≤ 0.1 nM.

With `COc1ccc2c(Nc3cc(-c4cc(Cl)ccc4F)nnc3OCCN3CCN(C)CC3)ccnc2c1` [Example 35, N-[6-(5-chloro-2-fluorophenyl)-3-[2-(4-methylpiperazin-1-yl)ethoxy]pyridazin-4-yl]-7-methoxyquinolin-4-amine], the Ki is 0.126 to 0.316 nM.

For `CN1CCN([C@H]2C[C@@H](C(=O)Nc3cc(Nc4cc(-c5cc(Cl)ccc5F)nnc4SCCO)ccn3)C2)CC1CCF` (mixture of isomers) [Example 172, Cis N-(4-{[6-(5-chloro-2-fluorophenyl)-3-[(2-hydroxyethyl)sulfanyl]pyridazin-4-yl]amino}pyridin-2-yl)-3-[3-(2-fluoroethyl)-4-methylpiperazin-1-yl]cyclobutane-1-carboxamide], the Ki was ≤ 0.1 nM. As for `COc1nnc(-c2cc(Cl)ccc2F)cc1Nc1ccnc2cc(OCCN3CCN(C)CC3)ccc12` [Example 46, N-[6-(5-chloro-2-fluorophenyl)-3-methoxypyridazin-4-yl]-7-[2-(4-methylpiperazin-1-yl)ethoxy]quinolin-4-amine], the Ki is ≤ 0.1 nM. For the molecule `C[C@@H]1CN(CC23CC(C(=O)Nc4cc(Nc5cc(-c6cc(Cl)ccc6F)nnc5SCCO)ccn4)(C2)C3)C[C@H](C)N1` [Example 191, N-(4-{[6-(5-chloro-2-fluorophenyl)-3-[(2-hydroxyethyl)sulfanyl]pyridazin-4-yl]amino}pyridin-2-yl)-3-[(3,5-dimethylpiperazin-1-yl)methyl]bicyclo[1.1.1]pentane-1-carboxamide], the inhibitory constant (Ki) is 0.126 to 0.316 nM. As for `C[C@@H]1CN(CCC(=O)Nc2cc(Nc3cc(-c4cc(Cl)ccc4F)nnc3SCCO)ncn2)C[C@H](C)N1` [Example 177, N-(6-{[6-(5-chloro-2-fluorophenyl)-3-[(2-hydroxyethyl)sulfanyl]pyridazin-4-yl]amino}pyrimidin-4-yl)-3-(3,5-dimethylpiperazin-1-yl)propanamide], the Ki was ≤ 0.1 nM.

For the molecule `CN1CC2(C1)CN(CC(=O)Nc1cc(Nc3cc(-c4cc(Cl)ccc4F)nnc3SCCO)ccn1)C2` [Example 24, N-(4-{[6-(5-chloro-2-fluorophenyl)-3-[(2-hydroxyethyl)sulfanyl]pyridazin-4-yl]amino}pyridin-2-yl)-2-{6-methyl-2,6-diazaspiro[3.3]heptan-2-yl}acetamide], the Ki was ≤ 0.1 nM.

As to `CN1CCN(CCC(=O)Nc2cc(Nc3cc(-c4cc(Cl)ccc4F)nnc3OCCNS(C)(=O)=O)ccn2)CC1` [Example 9, N-(4-{[6-(5-chloro-2-fluorophenyl)-3-(2-methanesulfonamidoethoxy)pyridazin-4-yl]amino}pyridin-2-yl)-3-(4-methylpiperazin-1-yl)propanamide], the Ki is ≤ 0.1 nM. Take `CN1CCN(CCC(=O)Nc2cc(Nc3cc(-c4cc(Cl)ccc4F)nnc3N(C)C)ccn2)CC1` [Example 30, N-(4-{[6-(5-chloro-2-fluorophenyl)-3-(dimethylamino)pyridazin-4-yl]amino}pyridin-2-yl)-3-(4-methylpiperazin-1-yl)propanamide]: the Ki is ≤ 0.1 nM.

As to `CN1CCN(CCC(=O)Nc2cc(Nc3cc(-c4cc(Cl)ccc4F)nnc3OC3CCOC3)ccn2)CC1` (single isomer, unassigned) [Example 75, N-(4-{[6-(5-chloro-2-fluorophenyl)-3-(oxolan-3-yloxy)pyridazin-4-yl]amino}pyridin-2-yl)-3-(4-methylpiperazin-1-yl)propanamide], the Ki is ≤ 0.1 nM. `CN1CCN(CCC(=O)Nc2cc(Nc3cc(-c4cc(Cl)ccc4F)nnc3OCC(F)(F)F)ccn2)CC1` [Example 50, N-(4-{[6-(5-chloro-2-fluorophenyl)-3-(2,2,2-trifluoroethoxy)pyridazin-4-yl]amino}pyridin-2-yl)-3-(4-methylpiperazin-1-yl)propanamide]: the Ki was ≤ 0.1 nM. In the case of `O=C(Nc1cc(Nc2cc(-c3cc(Cl)ccc3F)nnc2SCCO)ccn1)[C@H]1C[C@@H](N2CCN(C3CC3)CC2)C1` [Example 160, Cis N-(4-{[6-(5-chloro-2-fluorophenyl)-3-[(2-hydroxyethyl)sulfanyl]pyridazin-4-yl]amino}pyridin-2-yl)-3-(4-cyclopropylpiperazin-1-yl)cyclobutane-1-carboxamide] it was ≤ 0.1 nM.

Usually Ki stands for a dissociation constant, usually derived from enzyme kinetics or from competition with a known ligand.
